Measurements as given in patent US9808434B2, “Compound for treating cancer and diabetes” (CITY OF HOPE, priority 2011, dated 2017).
pIC50: −log10 of the molar value.

Key:
PBT-017 = experiment: Glioma ATP viability assay, PBT-017; type: cell-based; details: 72 h
Experimental: (§1) Cells of each cell line (U251, U87, PBT-017, PBT018, PBT003 and PBT028) were treated with various concentrations (0˜100 μM) of COH-SR4 for 72 hours. Cell viabilities were determined by ATP viability assays. Data were represented as a ratio to vehicle (DMSO) control, and plotted as mean±SEM (n=12) obtained from 2˜3 experiments (FIG. 34A).
as §1, with “(U87, U251,” for “(U251, U87, PBT-017, PBT018,”, “PVT-017)” for “PBT028)”, “2-3” for “2˜3”, “34B).” for “34A).”
Cells of each cell line were treated with various concentrations (0˜100 μM) of COH-SR4 or various concentrations (0˜1000 μM) of TMZ for 72 hours. Cell viabilities were determined by ATP viability assays. Data were represented as a ratio to untreated cells as control, and plotted as mean±SEM (n=12) obtained from 2˜3 experiments (FIGS. 43A-B).

[1] = tested on: CD133 sorted PBT-017 glioma cells; experiment: Killing of CD133 sorted PBT-017 glioma cells; type: cell-based; details: 0-100 μM, 4 days
Experimental: CD133 positive glioma stem cells were sorted by FACS. Unsorted cells, CD133 positive cells, and CD133 negative PBT-017 glioma cells were treated with COH-SR4 at various concentrations (0˜100 μM) for 4 days, respectively. Data were represented as a ratio to untreated control, and plotted as mean±SEM (n=12) obtained from 2˜3 experiments (FIG. 39A).

A2058 human melanoma = type: in vivo
Experimental: For melanoma studies, C57B mice (for syngeneic B16-F0 mouse melanoma model) and Hsd: Athymic nude nu/nu mice (for A2058 human melanoma mouse xenografts model), were obtained from Harlan, Indianapolis, Ind. All animal experiments were carried out in accordance with a protocol approved by the Institutional Animal Care and Use Committee (IACUC). […] All animals were injected with 2×10^6 melanoma cells suspensions in 100 μL of PBS, subcutaneously into one flank of each mouse. Treatment was started 10 days after the implantation to see palpable tumor growth. […] Control groups were treated with 200 μL corn oil by oral gavage alternate days. Animals were examined daily for signs of tumor growth. Tumors were measured in two dimensions using calipers. Photographs of animals were taken at day 1, day 10, day 14, day 18, day 20, day 30, and day 51 after subcutaneous injection, are shown for all groups. Photographs of tumors were also taken at day 20 (for syngeneic model), and at day 51 (for xenograft model).
C57B mice (for syngeneic B16-F0 mouse melanoma model) and Hsd: Athymic nude nu/nu mice (for A2058 human melanoma mouse xenografts model), were used for testing the impact of oral administration of COH-SR4 on melanoma progression in vivo models. […] All animals were injected with 2×10^6 melanoma cells suspensions in 100 μL of PBS, subcutaneously into one flank of each mouse. Treatment was started 10 days after the implantation of melanoma cells. […] Control groups were treated with 200 μL corn oil by oral gavage alternate day. Animals were examined daily for signs of tumor growth and body weights were recorded. […] Animals were examined daily for signs of tumor growth. Tumors were measured in two dimensions using calipers. […] Weights and photographs of tumors were also taken at day 20 (for syngeneic model), and at day 51 (for xenograft model) (FIG. 70B). […] Tumors were measured in two dimensions using calipers and time-course analysis of tumor regression was performed during the study. […]

For `O=C(Nc1cc(Cl)cc(Cl)c1)Nc1cc(Cl)cc(Cl)c1` [COH-SR4, 1,3-bis(3,5-dichlorophenyl) urea], the pIC50 (PBT-017; Table 1) was 5.70, the pIC50 (PBT-017; Table 2) was 5.68 and the “killing of CD133 positive, negative and unsorted cells” value [1] was “effective in killing the CD133 positive glioma stem cells”. For the same molecule, the “tumor regression and toxicity at higher dosage” value (A2058 human melanoma; 20 mg/kg b.w.) was “no further improvement in tumor regression and no toxicity was observed”, the tumor weight (A2058 human melanoma; day 51, control 1.91±0.3 g) was 0.7 ± 0.1 g and the “survival (still alive)” value (A2058 human melanoma; vehicle censored by day 51±3) was ≥ 88 days.
